ChEMBL document CHEMBL6127051, “Hydrazinecarboxamides: Comprehensive review of their anticancer, anticonvulsive, anti-inflammatory, enzyme inhibition, antioxidant and other activities” (Eur J Med Chem, 2024)
Values belong to the compound of their own block, whether it stands above or below them.

Experiments:
Mus musculus [1] = assay: Anticonvulsant activity in ip dosed MES induced mouse model measured after 4 hrs; assay type: functional
[2] = Inhibition of alpha amylase (unknown origin); design: species or system Homo sapiens
AR-42J cell line = assay: Antiproliferative activity against AR42J cells assessed as reduction in cell viability incubated for 24 hrs by MTT colorimetric assay; assay type: functional, cell-based; conditions: Rattus norvegicus
[3] = Antiplatelet activity in human platelets assessed as inhibition of collagen-induced platelet aggregation at 10 uM relative to control; assay type: functional; design: scale not given: the % may be the effect or the level left
[4] = Antiplatelet activity in human platelets assessed as inhibition of collagen-induced platelet aggregation at 20 uM relative to control; assay type: functional; design: scale not given: the % may be the effect or the level left
Mus musculus [5] = assay: Anticonvulsant activity in po dosed scPTZ induced Albino mouse seizure model measured after 4 hrs; assay type: functional
PC-3 = assay: Antiproliferative activity against human PC-3 cells assessed as inhibition of cell growth at 10 uM relative to control; assay type: functional; design: scale not given: the % may be the effect or the level left; conditions: pooled result: one value given for 4 cell lines, strains, targets or settings
UO-31 = assay: Antiproliferative activity against human UO-31 cells assessed as inhibition of cell growth at 10 uM relative to control; assay type: functional; design: scale not given: the % may be the effect or the level left
[6] = Inhibition of Lipoxygenase (unknown origin); design: species or system Homo sapiens
Alpha glucosidase = Alpha glucosidase (Homo sapiens, UniProt O43451+P10253+P14410+Q2M2H8); assay: Inhibition of Alpha glucosidase (unknown origin); assay type: protein assay
Mus musculus [7] = assay: Anticonvulsant activity in ip dosed MES induced mouse model measured after 2 hrs; assay type: functional
Acetylcholinesterase = Acetylcholinesterase (Electrophorus electricus, UniProt O42275); assay: Inhibition of electric eel AChE using acetylthiocholine iodide as substrate incubated for 15 mins by Ellman's method
Chain of Acetylcholinesterase (O42275 whole entry): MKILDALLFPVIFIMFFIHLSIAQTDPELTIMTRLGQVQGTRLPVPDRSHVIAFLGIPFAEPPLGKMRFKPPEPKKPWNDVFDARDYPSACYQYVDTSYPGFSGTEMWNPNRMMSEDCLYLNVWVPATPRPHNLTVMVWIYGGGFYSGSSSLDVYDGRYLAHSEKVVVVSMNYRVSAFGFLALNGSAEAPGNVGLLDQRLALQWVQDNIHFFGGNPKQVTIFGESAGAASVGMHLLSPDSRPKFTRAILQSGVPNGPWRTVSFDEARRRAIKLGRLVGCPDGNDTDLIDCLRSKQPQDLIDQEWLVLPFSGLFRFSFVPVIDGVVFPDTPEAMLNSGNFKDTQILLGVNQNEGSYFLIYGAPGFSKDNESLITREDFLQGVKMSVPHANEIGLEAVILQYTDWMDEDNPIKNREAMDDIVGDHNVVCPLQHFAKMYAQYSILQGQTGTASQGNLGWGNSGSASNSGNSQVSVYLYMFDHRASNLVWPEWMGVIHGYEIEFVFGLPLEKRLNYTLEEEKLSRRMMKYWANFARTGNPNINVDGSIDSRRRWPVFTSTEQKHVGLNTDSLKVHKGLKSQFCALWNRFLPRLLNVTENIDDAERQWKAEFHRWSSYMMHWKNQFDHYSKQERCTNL

Cholinesterase = Cholinesterase (Equus caballus, UniProt P81908); assay: Inhibition of equine serum BChE using butyrylthiocholine iodide as substrate measured after 15 mins by Ellman's method
Chain of Cholinesterase (P81908 whole entry): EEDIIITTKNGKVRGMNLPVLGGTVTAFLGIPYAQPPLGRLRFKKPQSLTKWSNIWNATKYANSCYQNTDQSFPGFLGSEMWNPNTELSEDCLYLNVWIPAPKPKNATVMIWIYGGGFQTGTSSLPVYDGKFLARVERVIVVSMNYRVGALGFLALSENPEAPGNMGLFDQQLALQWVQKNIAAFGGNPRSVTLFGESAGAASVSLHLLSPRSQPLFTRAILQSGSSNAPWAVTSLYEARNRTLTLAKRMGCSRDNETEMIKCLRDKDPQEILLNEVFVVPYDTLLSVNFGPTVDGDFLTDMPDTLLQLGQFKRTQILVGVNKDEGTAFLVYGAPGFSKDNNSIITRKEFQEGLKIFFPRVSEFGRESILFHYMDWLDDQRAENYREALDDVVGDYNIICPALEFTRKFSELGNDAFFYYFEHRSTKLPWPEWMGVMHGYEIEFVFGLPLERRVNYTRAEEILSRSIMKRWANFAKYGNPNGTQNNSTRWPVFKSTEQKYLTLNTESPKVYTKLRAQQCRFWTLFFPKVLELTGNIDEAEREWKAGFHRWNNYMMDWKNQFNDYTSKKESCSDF

[8] = target: Polyunsaturated fatty acid 5-lipoxygenase (Homo sapiens, UniProt P09917); assay: Inhibition of 5-LOX (unknown origin)
Chain of Polyunsaturated fatty acid 5-lipoxygenase (P09917 whole entry): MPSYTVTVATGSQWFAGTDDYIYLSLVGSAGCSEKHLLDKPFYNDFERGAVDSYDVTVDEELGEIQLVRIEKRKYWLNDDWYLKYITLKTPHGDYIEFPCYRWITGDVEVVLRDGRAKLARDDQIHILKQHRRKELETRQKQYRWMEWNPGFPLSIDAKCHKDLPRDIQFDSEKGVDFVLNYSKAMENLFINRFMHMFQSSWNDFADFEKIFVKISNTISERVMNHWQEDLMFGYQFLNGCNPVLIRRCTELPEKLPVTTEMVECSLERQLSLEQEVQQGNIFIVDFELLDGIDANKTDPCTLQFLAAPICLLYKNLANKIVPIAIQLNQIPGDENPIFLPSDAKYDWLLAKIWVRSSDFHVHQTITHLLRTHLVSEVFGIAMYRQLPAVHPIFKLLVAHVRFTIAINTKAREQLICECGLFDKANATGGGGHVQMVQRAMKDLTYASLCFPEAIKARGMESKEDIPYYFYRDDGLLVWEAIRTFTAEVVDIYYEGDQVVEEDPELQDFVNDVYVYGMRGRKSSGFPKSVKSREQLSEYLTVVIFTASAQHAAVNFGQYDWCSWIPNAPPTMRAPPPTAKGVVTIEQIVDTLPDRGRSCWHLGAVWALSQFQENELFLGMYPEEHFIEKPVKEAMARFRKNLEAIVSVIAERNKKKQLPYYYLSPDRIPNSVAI

[9] = Tmax in rat at 2 mg/kg, po by LC-MS/MS analysis; assay type: ADME, organism-based; conditions: in vivo
[10] = Half life in rat at 2 mg/kg, po by LC-MS/MS analysis; assay type: ADME, organism-based; conditions: in vivo
MCF7 [11] = assay: Antiproliferative activity against human MCF7 cells assessed as reduction in cell viability measured after 48 hrs by MTT assay; assay type: functional, cell-based; conditions: MCF7, 48 h
HepG2 [12] = assay: Antiproliferative activity against human HepG2 cells assessed as reduction in cell growth incubated for 24 hrs by MTT assay; assay type: functional, cell-based; conditions: HepG2, 24 h
NCI-H1563 = assay: Antiproliferative activity against human NCI-H1563 cells assessed as reduction in cell growth incubated for 24 hrs by MTT assay; assay type: functional, cell-based; conditions: NCI-H1563, 24 h
769-P = assay: Antiproliferative activity against human 769-P cells assessed as reduction in cell growth incubated for 48 hrs by MTT assay; assay type: functional, cell-based
HepG2 [13] = assay: Antiproliferative activity against human HepG2 cells assessed as reduction in cell growth incubated for 48 hrs by MTT assay; assay type: functional, cell-based; conditions: HepG2, 48 h
HEK293 = assay: Antiproliferative activity against HEK293 cells assessed as inhibition of cell growth incubated for 48 hrs by CCK8 assay; assay type: functional, cell-based; conditions: Homo sapiens, HEK293, 48 h
MCF7 [14] = assay: Antiproliferative activity against human MCF7 cells assessed as reduction in cell growth incubated for 48 hrs by MTT assay; assay type: functional, cell-based; conditions: MCF7, 48 h
HepG2 [15] = assay: Antiproliferative activity against human HepG2 cells assessed as inhibition of cell growth incubated for 48 hrs by MTT assay; assay type: functional, cell-based; conditions: HepG2, 48 h
DNA topoisomerase 1 = DNA topoisomerase 1 (Homo sapiens, UniProt P11387); assay: Inhibition of DNA topoisomerase I (unknown origin)
Chain of DNA topoisomerase 1 (P11387 whole entry): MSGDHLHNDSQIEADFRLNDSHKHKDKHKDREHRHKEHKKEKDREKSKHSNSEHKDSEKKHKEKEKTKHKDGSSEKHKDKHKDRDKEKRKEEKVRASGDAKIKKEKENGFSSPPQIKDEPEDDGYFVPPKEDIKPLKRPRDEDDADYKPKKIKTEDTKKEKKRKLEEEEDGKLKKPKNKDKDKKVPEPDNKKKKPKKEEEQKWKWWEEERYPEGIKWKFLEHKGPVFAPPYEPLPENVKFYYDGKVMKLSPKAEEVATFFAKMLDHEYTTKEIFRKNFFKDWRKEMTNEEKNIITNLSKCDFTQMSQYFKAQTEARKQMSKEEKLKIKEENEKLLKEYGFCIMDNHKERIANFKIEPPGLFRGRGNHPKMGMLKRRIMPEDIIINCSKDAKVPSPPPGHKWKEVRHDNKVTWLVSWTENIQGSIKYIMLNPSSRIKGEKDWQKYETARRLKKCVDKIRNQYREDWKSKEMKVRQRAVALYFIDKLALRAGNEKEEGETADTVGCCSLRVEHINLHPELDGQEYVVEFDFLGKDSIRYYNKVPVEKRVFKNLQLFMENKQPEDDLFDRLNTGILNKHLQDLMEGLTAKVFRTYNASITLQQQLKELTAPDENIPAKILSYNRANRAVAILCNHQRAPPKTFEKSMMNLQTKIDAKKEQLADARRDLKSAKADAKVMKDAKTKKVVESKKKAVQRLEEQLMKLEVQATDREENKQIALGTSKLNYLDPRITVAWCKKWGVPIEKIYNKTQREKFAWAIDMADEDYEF

P388 = assay: Cytotoxicity against mouse P388 cells assessed as reduction in cell viability; assay type: functional, cell-based
MKN-45 = assay: Antiproliferative activity against human MKN-45 cells assessed as inhibition of cell growth by MTT assay; assay type: functional, cell-based

- IC50 [2]: 64.8 µM
Structure (SMILES): O=C(CNc1nc2ccccc2n1C(=O)Nc1ccccc1)NNC(=O)Nc1ccccc1
- IC50 (AR-42J cell line): 304 µM

- IC50 [6]: 60 µM
Structure (SMILES): CC(C(=O)O)c1cccc(Oc2ccccc2)c1 (stereo not drawn) [FENOPROFEN]

- IC50 [2]: 53 µM
- IC50 (Alpha glucosidase): 94.33 µM
Structure (SMILES): Cc1ccc(C[C@@H]2C[C@H]3C(=O)N(C)C4(C[C@H](C)CC[C@H]4C(C)C)N3O2)c(OCC(=O)NNC(=O)Nc2cccc3ccccc23)c1 (stereo partly drawn)

- IC50 [8]: 5 µM
- Tmax [9]: 1 h
- half-life [10]: 198 min
Structure (SMILES): O=C1NCCN(c2ccccc2)N1

- IC50 (MCF7 [11]): 12 nM
Structure (SMILES): COc1cc(/C=C2\SC(=S)N(n3c(=O)[nH]c4ccccc4c3=O)C2=O)ccc1OC(=O)c1ccccc1

- IC50 (MCF7 [14]): 10.3 µM
- IC50 (HepG2 [15]): 7.73 µM
Structure (SMILES): O=C(NNC(=O)C(=O)Nc1ccccc1)Nc1ccccc1

- IC50 (DNA topoisomerase 1): 250 nM
- IC50 (MKN-45): 35 nM
Structure (SMILES): O=C(Nc1ccccc1)NN1C(=O)c2c(c3c4cccc(O)c4n([C@H]4O[C@H](CO)[C@@H](O)[C@H](O)[C@H]4O)c3c3[nH]c4c(O)cccc4c23)C1=O
- IC50 (P388): 35 nM

Continued, compound first:

Structure (SMILES): NNC(=O)Nc1ccccc1Cl
- Activity (Mus musculus [1]): 66.6%

Structure (SMILES): O=C(NNc1ccnc2ccccc12)Nc1ccccc1
- Activity [3]: 11.7%
- Activity [4]: 10.6%

Structure (SMILES): O=C(CSc1nc2ccccc2n2cnnc12)NNC(=O)NC1CCCCC1
- ED50 (Mus musculus [5]): 30 mg/kg

Structure (SMILES): CC(=O)Nc1nc(C)c(C(=O)NNC(=O)Nc2ccccc2)s1
- Activity (PC-3): 14.8%
- Activity (UO-31): 14.8%

Structure (SMILES): Cc1ccc(NC(=O)NN)cc1
- Activity (Mus musculus [7]): 100%

Structure (SMILES): CCCCCCCCCCCCCNC(=O)NNC(=O)c1ccc(C(F)(F)F)cc1
- IC50 (Acetylcholinesterase): 27 µM
- IC50 (Cholinesterase): 58 µM

Structure (SMILES): CCNC(=O)NNC(=O)c1ccc([N+](=O)[O-])cc1
- IC50 (HepG2 [12]): 7.06 µM
- IC50 (NCI-H1563): 336 µM
- IC50 (769-P): 4.78 mM
- IC50 (HepG2 [13]): 1.93 mM
- IC50 (HEK293): 1.5 mM
